Test results reported in the supplement of paper PMC10307832.

Columns and labels:
Assay in all cases: relative viability (nuclei count vs DMSO), 5 days (fraction); higher = more cells survive
[1] = compound: CN(C)CC1=CC(=CC=C1)N=C(C2=CC=CC=C2)C3=C(NC4=C3C=CC(=C4)C(=O)N(C)C)O + CC(=O)c1c(C)c2cnc(Nc3ccc(N4CCNCC4)cn3)nc2n(C2CCCC2)c1=O [Palbociclib] (partner 0.5 µM)
Procedure, shortened: (§1)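 A single step with final 0.05% Triton X-100, 1% formaldehyde and 1 ug/ml Hoechst fixed the cells and stained nuclei 5 days after treatment. Lung cancer cell lines in 1536-well plates had been treated by pin tool the day after seeding with one drug alone or a fixed anchor-drug dose plus five library-drug doses (not always all listed) in √10 steps, and nuclei were counted on 4× images. Relative viability is the ratio of nuclei in treated wells to nuclei in vehicle wells, taken as the median of duplicate plates.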

[2] = compound: CN(C)CC1=CC(=CC=C1)N=C(C2=CC=CC=C2)C3=C(NC4=C3C=CC(=C4)C(=O)N(C)C)O + Cc1nc(Nc2ncc(C(=O)Nc3c(C)cccc3Cl)s2)cc(N2CCN(CCO)CC2)n1 [Dasatinib] (partner 0.075 µM)
Procedure, shortened: as §1

[3] = compound: CN(C)CC1=CC(=CC=C1)N=C(C2=CC=CC=C2)C3=C(NC4=C3C=CC(=C4)C(=O)N(C)C)O + Nc1nc2[nH]cc(CCc3ccc(C(=O)N[C@@H](CCC(=O)O)C(=O)O)cc3)c2c(=O)[nH]1 [Pemetrexed] (partner 0.2 µM)
Procedure, shortened: as §1

[4] = compound: CN(C)CC1=CC(=CC=C1)N=C(C2=CC=CC=C2)C3=C(NC4=C3C=CC(=C4)C(=O)N(C)C)O + O=C(CCCCCCC(=O)Nc1ccccc1)NO [Vorinostat] (partner 1 µM)
Procedure, shortened: as §1

Cell Line | relative viability ([1]; first compound 0.08 µM) | relative viability ([1]; first compound 0.253 µM) | relative viability ([1]; first compound 0.8 µM) | relative viability ([1]; first compound 2.53 µM) | relative viability ([1]; first compound 8 µM) | relative viability ([2]; first compound 0.08 µM) | relative viability ([2]; first compound 0.253 µM) | relative viability ([2]; first compound 0.8 µM) | relative viability ([2]; first compound 2.53 µM) | relative viability ([2]; first compound 8 µM) | relative viability ([3]; first compound 0.08 µM) | relative viability ([3]; first compound 0.253 µM) | relative viability ([3]; first compound 0.8 µM) | relative viability ([3]; first compound 2.53 µM) | relative viability ([3]; first compound 8 µM) | relative viability ([4]; first compound 0.08 µM) | relative viability ([4]; first compound 0.253 µM) | relative viability ([4]; first compound 0.8 µM) | relative viability ([4]; first compound 2.53 µM) | relative viability ([4]; first compound 8 µM)
NCI-H1395 | 0.617 | 0.612 | 0.698 | 0.544 | 0.602 | 0.402 | 0.373 | 0.455 | 0.433 | 0.399 | 0.915 | 0.931 | 0.992 | 0.763 | 0.834 | 0.705 | 0.845 | 0.886 | 0.589 | 0.701
NCI-H1437 | 0.339 | 0.365 | 0.317 | 0.331 | 0.368 | 0.393 | 0.402 | 0.392 | 0.336 | 0.416 | 0.297 | 0.294 | 0.287 | 0.283 | 0.285 | 0.918 | 0.886 | 0.975 | 0.943 | 1.1
NCI-H1650 | 0.36 | 0.399 | 0.331 | 0.314 | 0.364 | 0.286 | 0.383 | 0.351 | 0.376 | 0.335 | 0.34 | 0.353 | 0.344 | 0.373 | 0.39 | 0.619 | 0.698 | 0.444 | 0.546 | 0.652
NCI-H1651 | 0.526 | 0.505 | 0.554 | 0.521 | 0.494 | 0.414 | 0.459 | 0.443 | 0.284 | 0.386 | 0.565 | 0.564 | 0.639 | 0.558 | 0.668 | 0.558 | 0.547 | 0.573 | 0.599 | 0.593
NCI-H1666 | 0.617 | 0.652 | 0.684 | 0.681 | 0.73 | 0.826 | 0.836 | 0.907 | 0.747 | 0.843 | 0.774 | 0.909 | 0.825 | 0.886 | 1.01 | 1.06 | 1.09 | 0.956 | 1.01 | 1.34
NCI-H1734 | 0.39 | 0.353 | 0.346 | 0.31 | 0.31 | 0.473 | 0.46 | 0.441 | 0.394 | 0.39 | 0.405 | 0.441 | 0.436 | 0.398 | 0.436 | 0.909 | 0.829 | 0.828 | 0.86 | 0.66
NCI-H1755 | 0.438 | 0.45 | 0.426 | 0.452 | 0.439 | 0.487 | 0.45 | 0.374 | 0.402 | 0.348 | 0.351 | 0.404 | 0.371 | 0.364 | 0.423 | 0.739 | 0.768 | 0.717 | 0.715 | 0.766
NCI-H1793 | 0.27 | 0.363 | 0.326 | 0.329 | 0.351 | 0.438 | 0.387 | – | 0.425 | 0.411 | 0.901 | 0.872 | 0.553 | 0.791 | 0.823 | 0.826 | 0.812 | 0.563 | 0.821 | 0.859
